# In patent US10696647B2, “Pharmacological treatment of obsessive-compulsive disorder” (BIOCODEX, priority 2013, dated 2020):
# “And” between values parts separate entries of the source, which are not always exact repeats. Equal values may be shown once.
# Experiments:
# Format in all cases: in vivo, NMRI mice
# [1] = system: marble-burying behavior in mice; assay: Marble-burying behavior in mice (model of obsessive-compulsive disorder); settings: for number of marbles buried (at least 2/3 buried, counted after 30 min): vs vehicle; for dose at which the decrease in number of marbles buried reached significance: p<0.05 vs vehicle
# Text: Marble-burying behavior in the rodent is considered to be a model of obsessive-compulsive disorder (OCD) and is commonly used to assess the activity of candidate compounds in the prevention or treatment of OCD (Ishimaru et al. (1995) Jpn. J. Pharmacol. 68:65-70; Gaikwad & Parle (2010) Asian Journal of Pharmaceutical and Clinical Research 3:101-103; Prajapati et al. (2011) Pharmacognosy Res. 3:62-66). […] In addition, because the motor behavior can interfere with the burying behavior, the effects of stripentol in the rota rod test and spontaneous locomotion have been also evaluated.
# (§1) Six-week old NMRI mice (30-32 g) were purchased from Janvier breeding (Le Genest-St Isle; France). Mice were housed ten per translucent polypropylene cage (internal dimensions; 37.5 cm×37.5 cm×[…], L×W×H) under standard laboratory conditions (22±2° C., 12-h light/dark cycle, lights on at 7:00 AM) with food (AO4, SAFE, France) and tap water available ad libitum. No less than one week of rest followed their arrival. All animal procedures were carried out in accordance with the European Community council directive of 24 of Nov. 1986 (86/609/EEC) for the care and use of laboratory animals and the French government guidelines (authorization C60-159-04—December, 2009).
# Mice were habituated to the testing room at least 60 min before any behavioural evaluation. All tests took place between 9:00 AM and 3:00 PM unless otherwise stated. The behavioural tests were performed by different well-trained experimenters who were kept unaware of the treatment administered. All experiments were performed in a randomized manner.
# The marble-burying behavior of mice was conducted according to the methodology of Njung'e and Handley (1991) Pharmacol Biochem Behav 1991; 38: 63-67. Briefly, each mouse was placed individually in a polycarbonate cage (Type S-River; 26.5×16×14 cm height) containing 20 clean glass marbles of diameter 1.5 cm evenly spaced on 5 cm deep sawdust. The cage-lid was a metal grid. No food or water was present. The marbles were cleaned with an alcohol solution (10%; v/v) between each animal. The number of marbles at least ⅔ buried was counted 30 min later.
# These compounds were administered under a volume of 0.1 ml/10 g of body weight. Control animals received an equivalent volume of vehicle.
# All data are expressed as mean±SEM. The number of marble buried, locomotor activity and the time spent on the rot rod were analyzed by one-way analyse of variance (ANOVA) or the Kruskall Wallis procedure followed post-hoc by the Dunnett's test or Dunn's method respectively to locate the differences between the treated groups and the vehicle group. Differences were considered statistically significant when p<0.05. Statistical tests were run using SigmaStat v3.5 (SPSS, inc, Chicago, Ill., USA).
# [2] = system: spontaneous locomotion; assay: Spontaneous locomotor activity (distance travelled, rearings); settings: up to 200 mg/kg i.p.; measured for 30 min
# Method: as §1, with “2009). […]” for “2009).”
# Testing occurred in a quiet room under a light level of approximately 400 lux. […] Locomotor activity and rearing were measured by vibrations analysis and the interruption of infra-red beams respectively (ActiV-Meter; Software BIO-ACTIV; Bioseb-Vitrolles-France). The distance travelled (in cm) and the number of rearings were measured for 30 min. […]
# (§2) All data are expressed as mean±SEM. The number of marble buried, locomotor activity and the time spent on the rot rod were analyzed by one-way analyse of variance (ANOVA) or the Kruskall Wallis procedure followed post-hoc by the Dunnett's test or Dunn's method respectively to locate the differences between the treated groups and the vehicle group. […]
# [3] = system: rotarod performance time; assay: Rotarod test (motor performance and coordination); settings: doses up to 200 mg/kg i.p.; 16 rpm, up to 120 s
# Method: as §1
# Mice were habituated to the testing room at least 60 min before any behavioural evaluation. […]
# The rotarod test was performed in accordance with the teachings of Kohara et al. (2005) J Pharmacol Exp Ther 2005; 315: 163-169. […] In the drug evaluation session, rotarod performance time was measured three times, up to 120 s, and the mean was adopted as the performance time for each animal. […]
# as §2
Structure (SMILES),"number of marbles buried (at least 2/3 buried, counted after 30 min) ([1]; stiripentol 100-200 mg/kg i.p. 60 min before testing, F(3.42)=5.425, p=0.003)",dose at which the decrease in number of marbles buried reached significance ([1]; stiripentol i.p. 60 min before testing),distance travelled [2],number of rearings [2],time spent on the rota rod [3],"number of marbles buried (at least 2/3 buried, counted after 30 min) ([1]; clomipramine 5-20 mg/kg i.p. 30 min before testing, H(3)=20.412, p<0.001)",dose at which the decrease in number of marbles buried reached significance ([1]; clomipramine i.p. 30 min before testing)
CC(C)(C)C(O)/C=C/c1ccc2c(c1)OCO2 (racemic) [stiripentol],dose-dependently decreased the number of marbles buried,200 mg/kg,did not significantly modify the distance travelled,did not significantly impair the number of rearings,without any significant effect,–,–
CN(C)CCCN1c2ccccc2CCc2ccc(Cl)cc21 [clomipramine],–,–,–,–,–,significantly reduced the number of marbles buried,10 mg/kg and 20 mg/kg
